Tests used:
Maize coleoptiles = assay: Effect of FB1 and AP1 on maize coleoptiles; type: cell-based; design: key to Injury of maize coleoptiles: + = brown necrotic discoloration of coleoptile; − = no symptoms (same as water control); conditions: for Injury of maize coleoptiles: 2 days dark 28° C., then 3 days light
Protocol: Maize coleoptiles from 4 day dark-grown germinated maize seeds were excised above the growing point and placed in 96-well microtiter plates in the presence of 60 microliters of sterile distilled water containing FB1 or AP1 at approximately equimolar concentrations of 1.5, 0.5, 0.15, 0.05, 0.015, 0.005, 0.0015, or 0.0005 millimolar, along with water controls. After 2 days in the dark at 28° C. the coleoptiles were placed in the light and incubated another 3 days.

BMS cells = assay: Effect of FB1 and AP1 on maize tissue cultured cells (Black Mexican Sweet, BMS); type: cell-based; conditions: for concentration at which growth of BMS cells was inhibited: 1 week, liquid culture, 96-well plates
Protocol: FB1 or AP1 at various concentrations was added to suspensions of BMS cells growing in liquid culture medium in 96-well polystyrene plates. After 1 week the cell density in wells was observed under low power magnification and growth of toxin-treated wells was compared to control wells that received water. […] This represents an approximate 100-fold difference in toxicity to maize tissue cultured cells. […] AP1 was not tested in that study, however.

APAO = APAO activity of crude cell-free extract, TLC; type: biochemical, Exophiala spinifera
Protocol: (§1) For analysis of APAO activity, an alternative method was used. Equal volumes of sample and ^14C-AP1 (1 mg/ml, pH 8, 50 mM sodium phosphate) were incubated at room temperature for one to six days. Analytical thin-layer chromatography was then carried out on C60 HPK silica gel plates (Whatman #4807-700; 10×10 cm; 0.2 mm thick). After application of from 0.1 to 2 μl of aqueous sample, the plates were air-dried and developed in CHCl3:MeOH:CH3COOH:H20 (55:36:8:1). Plates were then air dried, and exposed to Phosphorlmager screen (Molecular Dynamics) or autoradiographic film. A Storm™ Phosphorlmager (Molecular Dynamics) was used to scan the image produced on the screen.
A cell-free extract that contains the deaminase activity was obtained by subjecting substrate-induced Exophiala spinifera cells to disruption using a Bead Beater™ in 50 mM Na-phosphate, pH 8.0, and recovering the cell-free supernatant by centrifugation and 0.45 micron filtration. Catabolic activity is assayed by incubating extracts with AP1 (hydrolyzed fumonisin BI backbone) or “^4C-labelled AP1 with the extract and evaluating by TLC on C18 or C60 silica. […] Other amine-containing substrates were tested for modification by the crude extract. […] Preparative amounts of the product, named 2-OP, have also been purified and analyzed by C13 nmr.

APAO enzyme = type: biochemical, Exophiala spinifera; conditions: 1 mM substrate; pH 8.0, room temperature
Protocol: The following assay was used to determine the substrate specificity of the APAO enzyme. […] The APAO enzyme was recombinant enzyme produced,as GST fusion in E. coli, purified over a glutathione affinity column and cleaved with thrombin to remove the GST. All components were mixed at room temperature. The initial rate was determined in a spectrophotometer at 572 nm over one minute by absorbance units/second (BLANK). Ten microliters of APAO at 70 ug/ml was added and mixed. The initial rate was again determined at 572 nm over one minute in absorbance units/second (SAMPLE). The rates were converted to absorbance units/minute. The BLANK value was subtracted from the SAMPLE value. The absorbance units were converted to μM H2O2 wherein 1 μM H2O2 equals 0.138 absorbance units at pH 8.0.

Lemna tissues = conditions: AP1 versus FB1; cited from earlier work
tomato = conditions: cited from earlier work
maize callus = conditions: solid medium; cited from earlier work
[1] = Other enzymes tested for ability to modify AP1, radiolabeled TLC; type: biochemical; conditions: optimal conditions at 37° Celsius, overnight or longer
Protocol: as §1
Other enzymes were tested for their ability to modify AP1. All enzymes were assayed by radiolabeled TLC, as described above, under optimal conditions at 37° Celsius, overnight or longer.

[2] = Pichia expression of trAPAO, TLC assay; type: biochemical, Pichia pastoris; conditions: pellet suspensions and lysates; 6 days room temperature
Protocol: The Pichia culture fluids and pellets were assayed for APAO activity as described earlier.
The 50 μl cell pellets were resuspended in 150 μl cold 5OmM Na-phosphate, pH 8.0. and divided into two fresh 500 μl tubes. One tube was kept on ice with no treatment, the pellet suspension, and one tube was used for lysis. An equal volume of 0.1 mm zirconia-silica beads was added to each tube. The tubes were BeadBeatT™ for 15 seconds then cooled on ice 5 minutes. This was repeated three times. The crude lysate was then transferred to another tube for assay or lysate suspension.
The TLC assays were performed as follows, the samples are 1) pellet suspensions; 10 μl; 2) lysate suspensions; 10 μl; 3) media controls-mixed 5 μl media with 5 μl crude fungal enzyme; 10 μl; 4) positive control-used crude fungal enzyme undiluted; 10 μl; 5) substrate control-used 50 mM Na-phosphate, pH8.0; 10 μl. […]
A positive TLC result is obtained if an additional radioactive spot appears at a lower Rf of the produced AP1 modification earlier identified as 2-OP, a deaminated product of AP1. In samples #6 and #52 (without intron) the AP1-modifying enzyme activity (conversion of AP1 to 2-OP) was detected in pellet suspensions and pellet lysates, although the majority of activity was associated with the pellet suspensions. […]

[3] = Site-directed mutagenesis vectors: maize transient expression, APAO or trAPAO activity; type: biochemical; conditions: transient expression in maize
From the text: Please see the table above entitled “Table of site-directed mutagenesis vectors and enzyme assay results.” Thus, elimination of this glycosylation site is not in itself sufficient to have an active protein upon secretion. This could be due to glycosylation occurring at a second adjacent site (N201-S203). However, no active APAO was recovered when either N201 or S203 is mutated along with S206. […] This is backed up by predicted solvent accessibility numbers for these residues in the 3-D model based on the maize amine oxidase. Please see the table below entitled “Solvent accessibility for cysteine residues of truncated APAO.” The elimination of APAO glycosylation site at amino acids 204 to 206 is not sufficient to allow APAO to be secreted from the ccil and retain full enzyme activity, but elimination of this site may improve chances for obtaining a fully active enzyme once the other roadblock(s) to secretability have been resolved. In other words, elimination of this site may be necessary but not sufficient to produce active secretable APAO.

[4] = Mutated APAO lysates from E coli, Amplex Red assay, substrate FB1; type: biochemical; conditions: Glyc(−) APAO lysates from E coli
[5] = Mutated APAO lysates from E coli, Amplex Red assay, substrate AP1; type: biochemical; conditions: Glyc(−) APAO lysates from E coli

Molecule | Injury of maize coleoptiles (Maize coleoptiles; 1.5 mM) | Injury of maize coleoptiles (Maize coleoptiles; .0005 mM) | Injury of maize coleoptiles (Maize coleoptiles; .0015 mM) | Injury of maize coleoptiles (Maize coleoptiles; .005 mM) | Injury of maize coleoptiles (Maize coleoptiles; .05 mM) | Injury of maize coleoptiles (Maize coleoptiles; .15 mM) | Injury of maize coleoptiles (Maize coleoptiles; .5 mM) | concentration at which growth of BMS cells was inhibited (BMS cells) | RATE (APAO enzyme) | further results
CCCC[C@@H](C)[C@@H](O)[C@@H](O)C[C@@H](C)C[C@H](O)CCCC[C@@H](O)C[C@H](O)[C@H](C)N [AP1] | + | − | − | − | − | − | − | 40000 nM | 0.8876 μM H2O2/min | Injury of maize coleoptiles (Maize coleoptiles; .015 mM): −; difference in toxicity between FB1 and AP1 to maize coleoptiles (Maize coleoptiles; AP1 versus FB1): ≥ 30 fold; difference in toxicity to maize tissue cultured cells (BMS cells; AP1 versus FB1): ~100 fold; time to complete conversion to 2-OP (APAO; pH 9): 30 min; less toxic than FB1 in Lemna tissues (Lemna tissues): approx. 40 fold; reduction in toxicity to tomato by AP1 versus FB1 (tomato): ~100 fold
CCCC[C@@H](C)[C@@H](OC(=O)C[C@@H](CC(=O)O)C(=O)O)[C@H](C[C@@H](C)C[C@H](O)CCCC[C@@H](O)C[C@H](O)[C@H](C)N)OC(=O)C[C@@H](CC(=O)O)C(=O)O [FB1, fumonisin B1] | + | − | − | − | + | + | + | 400 nM | 0.1429 μM H2O2/min | modification by the crude extract (APAO; crude cell-free extract of induced Exophiala spinifera, TLC): not modified; concentration giving significant inhibition of maize callus (maize callus): 1400 nM
D-amino oxidase: EC 1.4.3.3, porcine kidney: Type X |  |  |  |  |  |  |  |  |  | Result (ability to modify AP1) [1]: negative
trAPAO: truncated, but still functional APAO (SEQ ID NO: 6) (protein, listed as Exophiala spinifera) DNVADVVVVGAGLSGLETARKVQAAGLSCLVLEAMDRVGGKTLSVQSGPGRTTINDLGAAWINDSNQSEVSRLFERFHLEGELQRTTGNSIHQAQDGTTTTAPYGDSLLSEEVASALAELLPVWSQLIEEHSLQDLKASPQAKRLDSVSFAHYCEKELNLPAVLGVANQITRALLGVEAHEISMLFLTDYIKSATGLSNIFSDKKDGGQYMRCKTGMQSICHAMSKELVPGSVHLNTPVAEIEQSASGCTVRSASGAVFRSKKVVVSLPTTLYPTLTFSPPLPAEKQALAENSILGYYSKIVFVWDKPWWREQGFSGVLQSSCDPISFARDTSIDVDRQWSITCFMVGDPGRKWSQQSKQVRQKSVWDQLRAAYENAGAQVPEPANVLEIEWSKQQYFQGAPSAVYGLNDLITLGSALRTPFKSVHFVGTETSLVWKGYMEGAIRSGQRGAAEVVASLVPAA |  |  |  |  |  |  |  |  |  | APAO activity (conversion of AP1 to 2-OP) in Pichia transformants [2]: functions correctly in degrading AP1
S206A: APAO mutated to alter the serine at position 206 to an alanine (SEQ ID NO: 33) (protein, Glyc(-) APAO; mutation in glycosylation sites (Exophiala spinifera)) MALAPSYINPPNVASPAGYSHVGVGPDGGRYVTIAGQIGQDASGVTDPAYEKQVAQAFANLRACLAAVGATSNDVTKLNYYIVDYAPSKLTAIGDGLKATFALDRLPPCTLVPVSALSSPEYLFEVDATALVPGHTTPDNVADVVVVGAGLSGLETARKVQAAGLSCLVLEAMDRVGGKTLSVQSGPGRTTINDLGAAWINDSNQAEVSRLFERFHLEGELQRTTGNSIHQAQDGTTTTAPYGDSLLSEEVASALAELLPVWSQLIEEHSLQDLKASPQAKRLDSVSFAHYCEKELNLPAVLGVANQITRALLGVEAHEISMLFLTDYIKSATGLSNIFSDKKDGGQYMRCKTGMQSICHAMSKELVPGSVHLNTPVAEIEQSASGCTVRSASGAVFRSKKVVVSLPTTLYPTLTFSPPLPAEKQALAENSILGYYSKIVFVWDKPWWREQGFSGVLQSSCDPISFARDTSIDVDRQWSITCFMVGDPGRKWSQQSKQVRQKSVWDQLRAAYENAGAQVPEPANVLEIEWSKQQYFQGAPSAVYGLNDLITLGSALRTPFKSVHFVGTETSLVWKGYMEGAIRSGQRGAAEVVASLVPAA |  |  |  |  |  |  |  |  |  | Maize expression vector, APAO or trAPAO Activity (Act) [3]: no detectable enzyme activity; Conclusion [4]: Slightly active; M H2O2/min [4]: 0.07 μM H2O2/min; Conclusion [5]: Partially Active; M H2O2/min [5]: 0.85 μM H2O2/min
